Experimental data: PMC5218480 (PLoS ONE, 2017)

Test system: MV-4-11 cells
Assay: Gene expression microarray analysis (Affymetrix PrimeView) and GSEA
Assay type: cell-based, human
Parameters: RFU PODN (11730768_x_at) / Fold change /veh PODN (11730768_x_at) / RFU LINC00158 (11744669_a_at) / Fold change /veh LINC00158 (11744669_a_at) / RFU DUSP10 (11751237_a_at) / Fold change /veh DUSP10 (11751237_a_at) / RFU ID3 (11757404_x_at) / Fold change /veh ID3 (11757404_x_at) / RFU PLEKHG5 (11737974_s_at) / Fold change /veh PLEKHG5 (11737974_s_at) / RFU LRRC4B (11730491_at) / Fold change /veh LRRC4B (11730491_at) / RFU GIMAP4 (11747438_a_at) / Fold change /veh GIMAP4 (11747438_a_at) / RFU KRT8 (11758183_x_at) / Fold change /veh KRT8 (11758183_x_at) / RFU CNN1 (11734310_a_at) / Fold change /veh CNN1 (11734310_a_at) / RFU VPS37D (11726825_at) / Fold change /veh VPS37D (11726825_at) / RFU C10orf10 (11716522_x_at) / Fold change /veh C10orf10 (11716522_x_at) / RFU KIR2DL2 /// KIR2DL4 /// KIR2DL5A /// KIR2DL5B /// KIR2DS1 /// KIR2DS2 /// KIR2DS3 /// KIR2DS4 /// KIR3DL3 /// KIR3DL3 /// KIR3DS1 (11738374_at) / Fold change /veh KIR2DL2 /// KIR2DL4 /// KIR2DL5A /// KIR2DL5B /// KIR2DS1 /// KIR2DS2 /// KIR2DS3 /// KIR2DS4 /// KIR3DL3 /// KIR3DL3 /// KIR3DS1 (11738374_at) / RFU C1QL1 (11718748_at) / Fold change /veh C1QL1 (11718748_at) / RFU TMPRSS4 (11747572_a_at) / Fold change /veh TMPRSS4 (11747572_a_at) / RFU HAMP (11756126_x_at) / Fold change /veh HAMP (11756126_x_at) / RFU RNFT2 (11725882_a_at) / Fold change /veh RNFT2 (11725882_a_at) / RFU NR4A2 (11747474_a_at) / Fold change /veh NR4A2 (11747474_a_at) / RFU ABCC12 (11746883_a_at) / Fold change /veh ABCC12 (11746883_a_at) / RFU TMEM136 (11760407_x_at) / Fold change /veh TMEM136 (11760407_x_at) / RFU CLDN22 /// WWC2 (11732394_at) / Fold change /veh CLDN22 /// WWC2 (11732394_at) / RFU HLA-DPB1 (11760878_x_at) / Fold change /veh HLA-DPB1 (11760878_x_at) / RFU SPINT1 (11716480_a_at) / Fold change /veh SPINT1 (11716480_a_at) / RFU GAP43 (11754022_s_at) / Fold change /veh GAP43 (11754022_s_at) / RFU A4GNT (11735810_at) / Fold change /veh A4GNT (11735810_at) / RFU PRB3 (11715151_x_at) / Fold change /veh PRB3 (11715151_x_at) / RFU TUBB4B (11761932_at) / Fold change /veh TUBB4B (11761932_at) / RFU CAPN14 (11732068_a_at) / Fold change /veh CAPN14 (11732068_a_at) / RFU TMCC2 (11721928_a_at) / Fold change /veh TMCC2 (11721928_a_at) / RFU IRGQ (11745062_a_at) / Fold change /veh IRGQ (11745062_a_at) / RFU FAM174B (11720279_a_at) / Fold change /veh FAM174B (11720279_a_at) / RFU TMPRSS4 (11748680_a_at) / Fold change /veh TMPRSS4 (11748680_a_at) / RFU FAM212B (11763350_a_at) / Fold change /veh FAM212B (11763350_a_at) / RFU PLEKHG5 (11743358_a_at) / Fold change /veh PLEKHG5 (11743358_a_at) / RFU ZSCAN30 (11745921_a_at) / Fold change /veh ZSCAN30 (11745921_a_at) / RFU CMKLR1 (11741424_a_at) / Fold change /veh CMKLR1 (11741424_a_at) / RFU LOC101060620 /// MAPK8IP1 (11723275_at) / Fold change /veh LOC101060620 /// MAPK8IP1 (11723275_at) / RFU SPTSSB (11747773_x_at) / Fold change /veh SPTSSB (11747773_x_at) / RFU PRSS12 (11739890_at) / Fold change /veh PRSS12 (11739890_at) / RFU BIN1 (11741810_x_at) / Fold change /veh BIN1 (11741810_x_at) / RFU WNT11 (11732464_a_at) / Fold change /veh WNT11 (11732464_a_at) / RFU C10orf10 (11716521_a_at) / Fold change /veh C10orf10 (11716521_a_at) / RFU C5orf56 (11738089_at) / Fold change /veh C5orf56 (11738089_at) / RFU CYB561 (11721691_x_at) / Fold change /veh CYB561 (11721691_x_at) / RFU ANKRD19P (11752326_a_at) / Fold change /veh ANKRD19P (11752326_a_at) / RFU OR2T12 /// OR2T33 /// OR2T8 (11738714_s_at) / Fold change /veh OR2T12 /// OR2T33 /// OR2T8 (11738714_s_at) / RFU VCAN (11748164_a_at) / Fold change /veh VCAN (11748164_a_at) / RFU JSRP1 (11732532_at) / Fold change /veh JSRP1 (11732532_at) / RFU KRTAP10-11 (11738290_x_at) / Fold change /veh KRTAP10-11 (11738290_x_at) / RFU MYO3A (11730013_a_at) / Fold change /veh MYO3A (11730013_a_at) / RFU EBF3 (11725865_a_at) / Fold change /veh EBF3 (11725865_a_at) / RFU CAMK2N1 (11719241_x_at) / Fold change /veh CAMK2N1 (11719241_x_at) / RFU C5orf56 (11738088_a_at) / Fold change /veh C5orf56 (11738088_a_at) / RFU OLFML3 (11715873_a_at) / Fold change /veh OLFML3 (11715873_a_at) / RFU LOC100653217 /// NTM (11731650_a_at) / Fold change /veh LOC100653217 /// NTM (11731650_a_at) / RFU MAPK11 (11762145_a_at) / Fold change /veh MAPK11 (11762145_a_at) / RFU FIZ1 (11724087_x_at) / Fold change /veh FIZ1 (11724087_x_at) / RFU OASL (11726364_x_at) / Fold change /veh OASL (11726364_x_at) / RFU SOX15 (11748057_x_at) / Fold change /veh SOX15 (11748057_x_at) / RFU CD79A (11719716_a_at) / Fold change /veh CD79A (11719716_a_at) / RFU HIST1H1D (11736915_at) / Fold change /veh HIST1H1D (11736915_at) / RFU CASKIN2 (11723855_a_at) / Fold change /veh CASKIN2 (11723855_a_at) / RFU LOC730098 (11760151_x_at) / Fold change /veh LOC730098 (11760151_x_at) / RFU OR4N2 (11742367_at) / Fold change /veh OR4N2 (11742367_at) / RFU PRRT2 (11749266_a_at) / Fold change /veh PRRT2 (11749266_a_at) / RFU SNX32 (11753110_a_at) / Fold change /veh SNX32 (11753110_a_at) / RFU CDHR5 (11726645_a_at) / Fold change /veh CDHR5 (11726645_a_at) / RFU RCAN1 (11760418_a_at) / Fold change /veh RCAN1 (11760418_a_at) / RFU FAM167A (11723789_a_at) / Fold change /veh FAM167A (11723789_a_at) / RFU FAM26E (11764081_at) / Fold change /veh FAM26E (11764081_at) / RFU ISYNA1 (11749810_s_at) / Fold change /veh ISYNA1 (11749810_s_at) / RFU ACY1 (11761880_at) / Fold change /veh ACY1 (11761880_at) / RFU 11764098_at / Fold change /veh 11764098_at / RFU SAMD14 (11745864_x_at) / Fold change /veh SAMD14 (11745864_x_at) / RFU NPB (11741838_a_at) / Fold change /veh NPB (11741838_a_at) / RFU TMPRSS6 (11731388_a_at) / Fold change /veh TMPRSS6 (11731388_a_at) / RFU KRTAP10-2 (11738614_at) / Fold change /veh KRTAP10-2 (11738614_at) / RFU ARHGAP8 /// PRR5-ARHGAP8 (11727945_x_at) / Fold change /veh ARHGAP8 /// PRR5-ARHGAP8 (11727945_x_at) / RFU KRTAP5-7 /// NADSYN1 (11734609_at) / Fold change /veh KRTAP5-7 /// NADSYN1 (11734609_at) / RFU RASL12 (11751679_a_at) / Fold change /veh RASL12 (11751679_a_at) / RFU CDKN2B (11736163_a_at) / Fold change /veh CDKN2B (11736163_a_at) / RFU PRF1 (11729649_at) / Fold change /veh PRF1 (11729649_at) / RFU, ZNF638 /// ZNF638-IT1 / Fold change vs veh, ZNF638 /// ZNF638-IT1 / RFU, PANK3 / Fold change vs veh, PANK3 / RFU, SH3YL1 / Fold change vs veh, SH3YL1 / RFU, ZEB2 / Fold change vs veh, ZEB2 / RFU, NRIP1 / Fold change vs veh, NRIP1 / RFU, PTTG1IP / Fold change vs veh, PTTG1IP / RFU, CAPN2 / Fold change vs veh, CAPN2 / RFU, MED14 / Fold change vs veh, MED14 / RFU, SNORA58 / Fold change vs veh, SNORA58 / RFU, C1orf63 / Fold change vs veh, C1orf63 / RFU, LRRFIP1 / Fold change vs veh, LRRFIP1 / RFU, NDUFAF7 / Fold change vs veh, NDUFAF7 / RFU, SLC12A2 / Fold change vs veh, SLC12A2 / RFU, IBTK / Fold change vs veh, IBTK / RFU, ESF1 / Fold change vs veh, ESF1 / Fold change vs veh, TMEM50B / RFU, TAOK1 / Fold change vs veh, TAOK1 / RFU, ACBD3 / Fold change vs veh, ACBD3 / RFU, TMA16 / Fold change vs veh, TMA16 / RFU, RWDD3 / Fold change vs veh, RWDD3 / RFU, BCAT1 / Fold change vs veh, BCAT1 / RFU, EDEM3 / Fold change vs veh, EDEM3 / RFU, TMEM33 / Fold change vs veh, TMEM33 / RFU, WDR75 / Fold change vs veh, WDR75 / RFU, AHCTF1 / Fold change vs veh, AHCTF1 / RFU, TFRC / Fold change vs veh, TFRC / RFU, ZDHHC17 / Fold change vs veh, ZDHHC17 / RFU, NOM1 / Fold change vs veh, NOM1 / RFU, ARL8B / Fold change vs veh, ARL8B / RFU, ZBTB11 / Fold change vs veh, ZBTB11 / RFU, TAMM41 / Fold change vs veh, TAMM41 / RFU, KIAA1704 /// LOC100996395 / Fold change vs veh, KIAA1704 /// LOC100996395 / RFU, ING1 / Fold change vs veh, ING1 / RFU, TRMT61B / Fold change vs veh, TRMT61B / RFU, FUBP3 / Fold change vs veh, FUBP3 / RFU, TP53 / Fold change vs veh, TP53 / RFU, TNKS2 / Fold change vs veh, TNKS2 / RFU, ZFP14 / Fold change vs veh, ZFP14 / RFU, ACTR2 / Fold change vs veh, ACTR2 / RFU, PPP3R1 / Fold change vs veh, PPP3R1 / RFU, PIK3R1 / Fold change vs veh, PIK3R1 / RFU, HNRNPA1 / Fold change vs veh, HNRNPA1 / RFU, RNF170 / Fold change vs veh, RNF170 / RFU, ZNF28 / Fold change vs veh, ZNF28 / RFU, RNGTT / Fold change vs veh, RNGTT / RFU, OGT / Fold change vs veh, OGT / RFU, BRD1 / Fold change vs veh, BRD1 / RFU, MARS / Fold change vs veh, MARS / RFU, ZNF655 / Fold change vs veh, ZNF655 / RFU, FAHD1 / Fold change vs veh, FAHD1 / RFU, BDP1 / Fold change vs veh, BDP1 / RFU, LRRCC1 / Fold change vs veh, LRRCC1 / RFU, ARID1A / Fold change vs veh, ARID1A / RFU, ZNF146 / Fold change vs veh, ZNF146 / RFU, ZNF330 / Fold change vs veh, ZNF330 / RFU, GPN3 / Fold change vs veh, GPN3 / RFU, C9orf123 / Fold change vs veh, C9orf123 / RFU, N4BP2L2 / Fold change vs veh, N4BP2L2 / RFU, ARFIP1 / Fold change vs veh, ARFIP1 / RFU, FAM179B / Fold change vs veh, FAM179B / RFU, BCL10 / Fold change vs veh, BCL10 / RFU, UHRF1BP1L / Fold change vs veh, UHRF1BP1L / RFU, BET1 / Fold change vs veh, BET1 / RFU, CNOT2 / Fold change vs veh, CNOT2 / RFU, ZNF268 / Fold change vs veh, ZNF268 / Fold change vs veh, ZNF507 / RFU, DGCR2 / Fold change vs veh, DGCR2 / RFU, WDSUB1 / Fold change vs veh, WDSUB1 / Fold change vs veh, HSP90B1 /// MIR3652 / RFU, ADSS / Fold change vs veh, ADSS / RFU, GK / Fold change vs veh, GK / RFU, ZNF148 / Fold change vs veh, ZNF148 / RFU, TAF9 / Fold change vs veh, TAF9 / RFU, SLC1A5 / Fold change vs veh, SLC1A5 / RFU, SLMO2 / Fold change vs veh, SLMO2 / RFU, ABCC4 / Fold change vs veh, ABCC4 / RFU, LOC101060439 /// RAP1B / Fold change vs veh, LOC101060439 /// RAP1B / RFU, RFX7 / Fold change vs veh, RFX7 / RFU, GTPBP10 / Fold change vs veh, GTPBP10 / RFU, CNEP1R1 / Fold change vs veh, CNEP1R1 / RFU, BIVM-ERCC5 /// ERCC5 / Fold change vs veh, BIVM-ERCC5 /// ERCC5 / RFU, ILF3 / Fold change vs veh, ILF3 / RFU 11762660_at / Fold change /veh 11762660_at / RFU VCAN (11757783_s_at) / Fold change /veh VCAN (11757783_s_at) / RFU DDX43 (11728927_at) / Fold change /veh DDX43 (11728927_at) / RFU KRT8 (11758188_x_at) / Fold change /veh KRT8 (11758188_x_at) / RFU NKD1 (11759106_at) / Fold change /veh NKD1 (11759106_at) / RFU SRD5A1 (11742802_a_at) / Fold change /veh SRD5A1 (11742802_a_at) / RFU TPSAB1 /// TPSB2 (11721975_s_at) / Fold change /veh TPSAB1 /// TPSB2 (11721975_s_at) / RFU GSTM3 (11746129_a_at) / Fold change /veh GSTM3 (11746129_a_at) / RFU IL23R (11737362_x_at) / Fold change /veh IL23R (11737362_x_at) / RFU TMEM51 (11727254_a_at) / Fold change /veh TMEM51 (11727254_a_at) / RFU PIWIL2 (11732686_x_at) / Fold change /veh PIWIL2 (11732686_x_at) / RFU ORM1 (11744905_x_at) / Fold change /veh ORM1 (11744905_x_at) / RFU CCDC152 (11743942_at) / Fold change /veh CCDC152 (11743942_at) / RFU ECM1 (11717891_a_at) / Fold change /veh ECM1 (11717891_a_at) / RFU IL23R (11748794_a_at) / Fold change /veh IL23R (11748794_a_at) / RFU TNFAIP8L3 (11732012_x_at) / Fold change /veh TNFAIP8L3 (11732012_x_at) / RFU MBOAT4 (11741988_at) / Fold change /veh MBOAT4 (11741988_at) / RFU 11764193_at / Fold change /veh 11764193_at / RFU TMEM53 (11763286_at) / Fold change /veh TMEM53 (11763286_at) / RFU MAGEB2 (11727129_at) / Fold change /veh MAGEB2 (11727129_at) / RFU TMEM200A (11744735_a_at) / Fold change /veh TMEM200A (11744735_a_at) / RFU CCDC152 (11751479_a_at) / Fold change /veh CCDC152 (11751479_a_at) / RFU FAM211A (11726209_a_at) / Fold change /veh FAM211A (11726209_a_at) / RFU RGS16 (11746705_a_at) / Fold change /veh RGS16 (11746705_a_at) / RFU VCAN (11755009_s_at) / Fold change /veh VCAN (11755009_s_at) / RFU RHOB (11743442_s_at) / Fold change /veh RHOB (11743442_s_at) / RFU RGS16 (11720943_a_at) / Fold change /veh RGS16 (11720943_a_at) / RFU RGS16 (11720944_at) / Fold change /veh RGS16 (11720944_at) / RFU, VPS4B / Fold change vs veh, VPS4B / RFU, CREB1 / Fold change vs veh, CREB1 / RFU, DNAJC13 / Fold change vs veh, DNAJC13 / RFU, GNAQ / Fold change vs veh, GNAQ / RFU, CDK5R1 / Fold change vs veh, CDK5R1 / RFU, ZRANB3 / Fold change vs veh, ZRANB3 / RFU, CUL4A / Fold change vs veh, CUL4A / RFU, CCNY / Fold change vs veh, CCNY / RFU, UFL1 / Fold change vs veh, UFL1 / RFU, COG3 / Fold change vs veh, COG3 / RFU, DIAPH2 / Fold change vs veh, DIAPH2 / RFU, SKA2 / Fold change vs veh, SKA2 / RFU, AFF3 / Fold change vs veh, AFF3 / RFU, LMF1 / Fold change vs veh, LMF1 / RFU, IPO11 / Fold change vs veh, IPO11 / RFU, DFFB / Fold change vs veh, DFFB / RFU, FOXP1 / Fold change vs veh, FOXP1 / RFU, CARD8 / Fold change vs veh, CARD8 / RFU, STRN3 / Fold change vs veh, STRN3 / RFU, ADK / Fold change vs veh, ADK / RFU, RASSF2 / Fold change vs veh, RASSF2 / RFU, WIPF1 / Fold change vs veh, WIPF1 / RFU, LARP1B / Fold change vs veh, LARP1B / RFU, RASA1 / Fold change vs veh, RASA1 / RFU, RB1 / Fold change vs veh, RB1 / RFU, PPFIA1 / Fold change vs veh, PPFIA1 / RFU, MAT2A / Fold change vs veh, MAT2A / RFU, CCT5 / Fold change vs veh, CCT5 / RFU, WDR92 / Fold change vs veh, WDR92 / RFU, CUX1 / Fold change vs veh, CUX1 / RFU, TTC7A / Fold change vs veh, TTC7A / RFU, TMEM135 / Fold change vs veh, TMEM135 / RFU, DEPTOR / Fold change vs veh, DEPTOR / RFU, CPM / Fold change vs veh, CPM / RFU, DNAJB6 / Fold change vs veh, DNAJB6 / RFU, CACNA2D3 / Fold change vs veh, CACNA2D3 / RFU, DTX4 / Fold change vs veh, DTX4 / RFU, TFCP2 / Fold change vs veh, TFCP2 / RFU, GMCL1 /// GMCL1P1 / Fold change vs veh, GMCL1 /// GMCL1P1 / RFU, AEBP2 / Fold change vs veh, AEBP2 / RFU, SNHG1 /// SNORD22 /// SNORD25 /// SNORD26 /// SNORD27 /// SNORD28 /// SNORD29 /// SNORD31 / Fold change vs veh, SNHG1 /// SNORD22 /// SNORD25 /// SNORD26 /// SNORD27 /// SNORD28 /// SNORD29 /// SNORD31 / Fold change (Aza/veh), C12orf56 (ProbeSet 11735607_a_at) / Fold change (ACY-1035/veh), C12orf56 (ProbeSet 11735607_a_at) / Fold change (Aza/veh), FGFR1OP (ProbeSet 11751329_s_at) / Fold change (ACY-1035/veh), FGFR1OP (ProbeSet 11751329_s_at) / Fold change (Aza/veh), VPS36 (ProbeSet 11739960_a_at) / Fold change (ACY-1035/veh), VPS36 (ProbeSet 11739960_a_at) / RFU SYPL1 (11715823_x_at) / Fold change /veh SYPL1 (11715823_x_at) / RFU IGFBP7 (11715501_s_at) / Fold change /veh IGFBP7 (11715501_s_at) / RFU REEP3 (11722064_at) / Fold change /veh REEP3 (11722064_at) / RFU IGLL1 (11728026_x_at) / Fold change /veh IGLL1 (11728026_x_at): dose or concentration left out as unconfirmed
Settings: MV-4-11 cells, 48 hours

Nc1ncn([C@@H]2O[C@H](CO)[C@@H](O)[C@H]2O)c(=O)n1 [azacitidine]
Fold change /veh RGS16 (11720943_a_at): 1.45
